# How the values were obtained:
# [1] = tested on: latent HIV-1 in CD4+ T cells from HIV-1-infected individuals; test: Intracellular HIV-1 mRNA (ddPCR) in CD4+ T cells from HIV-1-infected individuals treated ex vivo; format: cell-based
# Source text: Four aviremic HIV-1-infected individuals were recruited from the SCOPE cohorts at the University of California. San Francisco. Table 2 details the characteristics of the study participants.
# Peripheral blood mononuclear cells (PBMCs) from whole blood or continuous flow centrifugation leukapheresis product were purified using density centrifugation on a Ficoll-Hypaque gradient. Resting CD4^+ lymphocytes were enriched by negative depletion with an EasySepHuman CD4^+ T Cell Isolation Kit (Stemcell). Cells were cultured in RPMI medium supplemented with 10% fetal bovine serum, penicillin/streptomycin and 5 μM saquinavir. Five million resting CD4′ lymphocytes were stimulated with latency-reversing agents (LRAs) at the indicated concentrations (20-500 nM AZ391, 100 nM JQ1, 25 μl/1×10^6 T cells αCD3/αCD28 Dynabeads (Life Technologies) for 48 hours. After LRA treatment, cells were collected, lysed and total RNA was isolated with an RNeasy kit (Quiagen). A Superscript III One-Step RT-PCR system (Life Technologies) was used to generate and pre-amplify cell-associated viral mRNA. Reaction mixes contained 15 μl of a PCR mix containing reaction mix, Superscript III, primers (900 nM final concentration) and 10 μl purified RNA. Pre-amplification was carried out using the following steps: reverse transcription at 50° C. for 30 min, denaturation at 95° C. for 2 min, 10 cycles of amplification (94° C. 15 s, 55° C. 30 s, 68° C. 5 min) on a GeneAmp PCR system 9700 (Thermo Fisher). Subsequently, droplet digital PCR (ddPCR) was applied to quantify pre-amplified cDNA. Each 25 μl ddPCR mix comprised the ddPCR Probe Supermix (no dUTP), 900 nM primers, 250 nM probe, and 4 μl cDNA. The following cycling conditions were used: 10 minutes at 95° C. […] Finally, samples were amplified on a BioRad C1000 Thermocycler and analyzed using a BioRad QX100 ddPCR Reader. […]
# Next, AZ391 was tested in CD4^+ T cells from HIV-1-infected individuals on suppressive ART. […] After 48 hours, levels of intracellular HIV-1 mRNA were measured by droplet digital RT-PCR using a previously published primer/probe set (Laird et al., 2015). […]
# SMYD2 = SMYD2 (Homo sapiens, UniProt Q9NRG4); test: In vitro SMYD2 methylation assay of histone H4; format: biochemical; set-up: purchased Sigma-Aldrich
# Method: In vitro Methylation assays were performed as described (Nishioka et al., 2002). For reactions, 2 gtg of histones (isolated from HEK293T cells), recombinant histone 4 (New England Biolabs), synthetic histone 4 as 1-21 and as 15-24 peptides (Cayman Chemical), or synthetic histone H4 as 1-21 with a K20A mutation (GenScript) were incubated with recombinant WT SMYD2 (Sigma-Aldrich) or SMYD2 Y240F (Active Motif) in a buffer containing 50 mM Tris-HCl, pH 9, 0.01% Tween 20, 2 mM DTT and 1.1 μCi of H3-labeled SAM (Perk-in Elmer) overnight at 30° C. Reaction mixtures were fractionated on 15% SDS-PAGE for proteins or on 10-20% Tris-Tricine gradient gels for peptides (BioRad). After Coomassie staining, gels were treated with Amplify. (GE Healthcare) for 30 min, dried and exposed to hyperfilm (GE Healthcare) overnight.
# SMYD2, sequence (Q9NRG4 whole entry): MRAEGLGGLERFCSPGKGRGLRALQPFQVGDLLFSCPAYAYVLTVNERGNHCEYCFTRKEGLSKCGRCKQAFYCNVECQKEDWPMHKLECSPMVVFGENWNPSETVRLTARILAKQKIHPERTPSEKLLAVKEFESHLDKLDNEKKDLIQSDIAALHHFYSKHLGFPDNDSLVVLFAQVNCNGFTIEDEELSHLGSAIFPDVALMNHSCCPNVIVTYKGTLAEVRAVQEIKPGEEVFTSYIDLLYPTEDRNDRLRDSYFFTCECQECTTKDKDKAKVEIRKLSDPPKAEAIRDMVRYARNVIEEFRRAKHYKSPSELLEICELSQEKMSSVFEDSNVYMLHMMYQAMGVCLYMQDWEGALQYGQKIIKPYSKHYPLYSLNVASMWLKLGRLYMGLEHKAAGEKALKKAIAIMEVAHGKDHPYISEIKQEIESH
smiles,measurement,setting,value
N#Cc1cc(C(=O)NCCCN2CCCC2)cc(-c2ccccc2N2CCN(CCc3c[nH]c4ccccc34)CC2)c1 [AZ391],mean increase of intracellular HIV-1 mRNA levels,"[1]; 500 nM, 48 hours, three additional donors",1.5-10 fold
same,"intracellular HIV-1 mRNA, combination effect",[1]; combination with JQ1,no additive or synergistic effects
same,intracellular HIV-1 mRNA levels,"[1]; increasing concentrations (maximal 500 nM), 48 hours, one individual",increased intracellular HIV-1 mRNA levels in a dose-dependent manner
same,methylation of recombinant human histone H4 by SMYD2,"SMYD2; full-length histone H4, 3H-SAM autoradiography",inhibited
same,methylation of synthetic histone H4 peptides by SMYD2,SMYD2; peptides aa 1-21 and aa 15-24,suppressed
